Reference: patent US12570988B2, “Aptamers that bind thiamine analogs and derivatives” (MeiraGTx Gene Regulation Limited, priority 2020, dated 2026)

How the values were obtained:
riboswitch 15D10 [1] = test: Luciferase reporter with 15D10 riboswitch (Luci-15D10) in HEK 293 cells; assay type: cell-based, human; conditions: Homo sapiens, HEK293, 24 h, 50 μM; HEK 293 cells; Table 2; read-out: Fold increase in riboswitch 15D10-regulated luciferase expression, HEK
Experimental: Transfection: 3.5×10^4 human embryonic kidney (HEK) 293 cells were plated in a 96-well flat bottom plate the day before transfection. Plasmid DNA (500 ng) was added to a tube or a 96-well U-bottom plate. […] Then, 50 μL of this diluted transfection reagent was added to the DNA, mixed, and incubated at RT for 20 min. Finally, 7 μL of this solution was added to a well of cells in the 96-well plate. Four hours after transfection, medium containing transfection solution was replaced by medium containing either TPP, fursultiamine, prosultiamine, bisbentiamine, beclotiamine hydrochloride, or sulbutiamine as aptamer inducers.
Firefly luciferase assay of cultured cells: Twenty-four hours after media change, plates were removed from the incubator, and equilibrated to RT for several minutes on a lab bench, then aspirated. Glo-lysis buffer (Promega, 100 μL, RT) was added, and the plates allowed to remain at RT for at least 5 minutes. Then, the well contents were mixed by 50 μL trituration, and 20 μL of each sample was mixed with 20 μL of bright-glo reagent (Promega) that had been diluted to 10% in glo-lysis buffer. 96 wells were spaced on an opaque white 384-well plate. Following a 5 min incubation at RT, luminescence was measured using a Tecan machine with 500 ms read time. The luciferase activity was expressed as mean arbitrary light units (ALU)±S.D., and fold induction was calculated as the quotient of the luciferase activity obtained from cells with TPP or analog treatment divided by the luciferase activity obtained from cells without TPP or analog treatment.

riboswitch 15D10 [2] = test: Luciferase reporter with 15D10 riboswitch (Luci-15D10) in AML12 cells; assay type: cell-based, mouse; conditions: Mus musculus, AML12, 24 h, 50 μM; AML12 cells; Table 2; read-out: Fold increase in riboswitch 15D10-regulated luciferase expression, AML

SMILES	fold induction at 50 µM (riboswitch 15D10 [1])	fold induction at 50 µM (riboswitch 15D10 [2])
C/C(=C(\CCO)SC(=O)c1ccc2c(c1)C(C)(C)CCC2(C)C)N(C=O)Cc1cnc(C)nc1N [Compound M50, (Z)—S-(2-(N-((4-amino-2-methylpyrimidin-5-yl)methyl)formamido)-5-hydroxypent-2-en-3-yl) 5,5,8,8-tetramethyl-5,6,7,8-tetrahydronaphthalene-2-carbothioate]	93.5	142
C/C(=C(\CCO)SC(=O)c1ccc2ccccc2c1Br)N(C=O)Cc1cnc(C)nc1N [Compound M51, (Z)—S-(2-(N-((4-amino-2-methylpyrimidin-5-yl)methyl)formamido)-5-hydroxypent-2-en-3-yl) 1-bromonaphthalene-2-carbothioate]	392	189
COc1ccc2cc(C(=O)S/C(CCO)=C(/C)N(C=O)Cc3cnc(C)nc3N)ccc2c1 [Compound M52, (Z)—S-(2-(N-((4-amino-2-methylpyrimidin-5-yl)methyl)formamido)-5-hydroxypent-2-en-3-yl) 6-methoxynaphthalene-2-carbothioate]	364	195
C/C(=C(\CCO)SC(=O)C12CC3CC(CC(C3)C1)C2)N(C=O)Cc1cnc(C)nc1N [Compound M53, S—((Z)-2-(N-((4-amino-2-methylpyrimidin-5-yl)methyl)formamido)-5-hydroxypent-2-en-3-yl) (3r,5r,7r)-adamantane-1-carbothioate]	2.4	57
C/C(=C(\CCO)SC(=O)C(C)c1ccccc1)N(C=O)Cc1cnc(C)nc1N (stereo not drawn) [Compound M54, (Z)—S-(2-(N-((4-amino-2-methylpyrimidin-5-yl)methyl)formamido)-5-hydroxypent-2-en-3-yl) 2-phenylpropanethioate]	3	13.9
C/C(=C(\CCO)SC(=O)C(C)(C)Cc1ccccc1)N(C=O)Cc1cnc(C)nc1N [Compound M55, (Z)—S-(2-(N-((4-amino-2-methylpyrimidin-5-yl)methyl)formamido)-5-hydroxypent-2-en-3-yl) 2,2-dimethyl-3-phenylpropanethioate]	2.1	9
C/C(=C(\CCO)SC(=O)C1(C)CCCCC1)N(C=O)Cc1cnc(C)nc1N [Compound M57, (Z)—S-(2-(N-((4-amino-2-methylpyrimidin-5-yl)methyl)formamido)-5-hydroxypent-2-en-3-yl) 1-methylcyclohexane-1-carbothioate]	1.2	24.4
C/C(=C(\CCO)SC(=O)C(C)(c1ccccc1)c1ccccc1)N(C=O)Cc1cnc(C)nc1N [Compound M58, (Z)—S-(2-(N-((4-amino-2-methylpyrimidin-5-yl)methyl)formamido)-5-hydroxypent-2-en-3-yl) 2,2-diphenylpropanethioate]	1.1	1.5
C/C(=C(\CCO)SC(=O)C(c1ccccc1)C(C)C)N(C=O)Cc1cnc(C)nc1N (stereo not drawn) [Compound M59, (Z)—S-(2-(N-((4-amino-2-methylpyrimidin-5-yl)methyl)formamido)-5-hydroxypent-2-en-3-yl) 3-methyl-2-phenylbutanethioate]	1.1	1
C/C(=C(\CCO)SC(=O)C1(C)Cc2ccccc2C1)N(C=O)Cc1cnc(C)nc1N [Compound M62, (Z)—S-(2-(N-((4-amino-2-methylpyrimidin-5-yl)methyl)formamido)-5-hydroxypent-2-en-3-yl) 2-methyl-2,3-dihydro-1H-indene-2-carbothioate]	49	110
C/C(=C(\CCO)SC(=O)C(C)(C)c1ccc2ccccc2c1)N(C=O)Cc1cnc(C)nc1N [Compound M63, (Z)—S-(2-(N-((4-amino-2-methylpyrimidin-5-yl)methyl)formamido)-5-hydroxypent-2-en-3-yl) 2-methyl-2-(naphthalen-2-yl)propanethioate]	1.7	19
C/C(=C(\CCO)SC(=O)C(c1ccccc1)c1ccccc1)N(C=O)Cc1cnc(C)nc1N [Compound M64, (Z)—S-(2-(N-((4-amino-2-methylpyrimidin-5-yl)methyl)formamido)-5-hydroxypent-2-en-3-yl) 2,2-diphenylethanethioate]	2	3.9
C/C(=C(\CCO)SC(=O)C1(c2cccc(Br)c2)CC1)N(C=O)Cc1cnc(C)nc1N [Compound M65, (Z)—S-(2-(N-((4-amino-2-methylpyrimidin-5-yl)methyl)formamido)-5-hydroxypent-2-en-3-yl) 1-(3-bromophenyl)cyclopropane-1-carbothioate]	3.2	67.1
C/C(=C(\CCO)SC(=O)c1c(Cl)cc(-c2ccccc2)cc1Cl)N(C=O)Cc1cnc(C)nc1N [Compound M66, (Z)—S-(2-(N-((4-amino-2-methylpyrimidin-5-yl)methyl)formamido)-5-hydroxypent-2-en-3-yl) 3,5-dichloro-[1,1′-biphenyl]-4-carbothioate]	1.1	0.4
C/C(=C(\CCO)SC(=O)c1c(C)cc(C(C)(C)C)cc1C)N(C=O)Cc1cnc(C)nc1N [Compound M67, (Z)—S-(2-(N-((4-amino-2-methylpyrimidin-5-yl)methyl)formamido)-5-hydroxypent-2-en-3-yl) 4-(tert-butyl)-2,6-dimethylbenzothioate]	2.1	0.9
C/C(=C(\CCO)SC(=O)c1ccc(-c2ccccc2)cc1Cl)N(C=O)Cc1cnc(C)nc1N [Compound M68, (Z)—S-(2-(N-((4-amino-2-methylpyrimidin-5-yl)methyl)formamido)-5-hydroxypent-2-en-3-yl) 3-chloro-[1,1′-biphenyl]-4-carbothioate]	303	209
C/C(=C(\CCO)SC(=O)c1cc(C(C)(C)C)cc(C(C)(C)C)c1)N(C=O)Cc1cnc(C)nc1N [Compound M70, (Z)—S-(2-(N-((4-amino-2-methylpyrimidin-5-yl)methyl)formamido)-5-hydroxypent-2-en-3-yl) 3,5-di-tert-butylbenzothioate]	51	236
C/C(=C(\CCO)SC(=O)c1cccc(-c2ccccc2)c1)N(C=O)Cc1cnc(C)nc1N [Compound M72, (Z)—S-(2-(N-((4-amino-2-methylpyrimidin-5-yl)methyl)formamido)-5-hydroxypent-2-en-3-yl) [1,1′-biphenyl]-3-carbothioate]	236	295
C/C(=C(\CCO)SC(=O)c1ccc(Oc2ccccc2)cc1)N(C=O)Cc1cnc(C)nc1N [Compound M73, (Z)—S-(2-(N-((4-amino-2-methylpyrimidin-5-yl)methyl)formamido)-5-hydroxypent-2-en-3-yl) 4-phenoxybenzothioate]	205	200
C/C(=C(\CCO)SC(=O)c1ccc2oc3ccccc3c2c1)N(C=O)Cc1cnc(C)nc1N [Compound M76, (Z)—S-(2-(N-((4-amino-2-methylpyrimidin-5-yl)methyl)formamido)-5-hydroxypent-2-en-3-yl) dibenzo[b,d]furan-2-carbothioate]	60.7	134
